Measurements reported in patent US6703424B2, “Dispersible compositions containing L-DOPA ethyl ester” (Teva Pharmaceutical Industries, Ltgd., priority 1998, dated 2004).

Tests used:
Format in all cases: physicochemical
[1] = Dissolution test for L-DOPA ethyl ester/carbidopa dispersible tablets in water (USP dissolution apparatus, HPLC-UV); conditions: 100 ml purified water, room temperature, paddles 200 rpm
Protocol: The dissolution of L-DOPA ethyl ester and carbidopa dispersible tablets was measured in water at room temperature according to the following methodology which was designed to simulate the administration of these tablets to patients. The recommended use is to place a tablet (384 mg) for a few seconds in about 100 mls of water, and to dissolve while swirling or stirring. The suspension should be drunk within 30 minutes. In order to automate the measurement, a USP 6-Pot Dissolution Apparatus is used. Each of 6 tablets are dissolved in 100 ml of purified water in a 200 ml vessel at room temperature (23±2° C.). This is the minimum volume which may be used with the USP Dissolution Apparatus. The solutions are stirred with paddles rotating at 200 rpm, which simulates the turbulence caused when the solution is stirred in a cup, with a teaspoon. […] In this experiment specifically, the amount of L-DOPA ethyl ester or carbidopa is determined by using a 10 cm C18 column, based on 3 μ-diameter spherical silica particles with 100 Å pore size. The elution solvents comprise a gradient of acetonitrile and phosphate buffer with ion-pairing reagent (at pH 2.7). The detection technique is ultraviolet absorption at 280 nm, the wavelength of maximum absorption for both L-DOPA ethyl ester and Carbidopa.

[2] = L-DOPA ethyl ester degradation in solution and tablets, measured as level of L-DOPA over six months; conditions: oral solution acidified with HCl
Protocol: A comparison of L-DOPA ethyl ester (LDEE) degradation in LDEE oral solution (4° C.), and in two environmental conditions of LDEE and Carbidopa dispersible tablets (at 25° C./60% RH and at 40° C./75% RH), was performed by measuring the change in levels of L-DOPA in samples over a six month period of time. L-DOPA is the main degradation product of L-DOPA ethyl ester. Elevation in the level of L-DOPA indicates degradation of LDEE.
The change in the level of L-DOPA with time, expressed as percent of the concentration of LDEE in the sample, was determined in LDEE and Carbidopa Dispersible Tablets (Formulation V, packed in aluminum blisters) and in LDEE oral solution (packed in PET bottles). The composition of the solution was (per 1 ml): 57.1 mg LDEE, 1.2 mg Methylparaben, 1.6 mg Saccharin sodium, 0.1 mg Edetate disodium and cherry flavor. The solution was acidified with HCl to pH 4.0, in which the stability of LDEE is maximal. The solution was kept in refrigeration (4° C.) while the tablets were kept at room conditions (25° C. and 60% relative humidity) or in accelerated stability conditions (40° C. and 75% relative humidity). The results are shown below in Table 4 and in FIG. 4: […]

[3] = Stability of L-DOPA ethyl ester composition on incubation at 40° C.; conditions: after incubation for 6 months at 40° C.

Row | Percentage of Dissolution ([1]; 1 minute) [%] | Percentage of Dissolution ([1]; 2 minutes) [%] | Percentage of Dissolution ([1]; 5 minutes) [%] | pH at which the stability of LDEE is maximal [2] | Compound | L-DOPA ethyl ester content remaining [3]
1 | 64.3 | 87.6 | 101.4 | – | C[C@@](Cc1ccc(O)c(O)c1)(NN)C(=O)O [Carbidopa, reference compound] | –
2 | 67.2 | 90.1 | 102.7 | 4.0 | CCOC(=O)[C@@H](N)Cc1ccc(O)c(O)c1 [L-DOPA Ethyl Ester, L-DOPA ethyl ester] | at least 97 % by weight of the active ingredient
